# What was measured:
# [1] = molecular target: Prostaglandin G/H synthase 1 (Homo sapiens, UniProt P23219); experiment: Inhibition of COX1 by enzyme immunoassay
# [2] = Selectivity index, ratio of IC50 for COX1 to IC50 COX2
# [3] = molecular target: T1, Prostaglandin G/H synthase 2 (Homo sapiens, UniProt P35354); experiment: Inhibition of COX2 by enzyme immunoassay
# T1 sequence (P35354 whole entry): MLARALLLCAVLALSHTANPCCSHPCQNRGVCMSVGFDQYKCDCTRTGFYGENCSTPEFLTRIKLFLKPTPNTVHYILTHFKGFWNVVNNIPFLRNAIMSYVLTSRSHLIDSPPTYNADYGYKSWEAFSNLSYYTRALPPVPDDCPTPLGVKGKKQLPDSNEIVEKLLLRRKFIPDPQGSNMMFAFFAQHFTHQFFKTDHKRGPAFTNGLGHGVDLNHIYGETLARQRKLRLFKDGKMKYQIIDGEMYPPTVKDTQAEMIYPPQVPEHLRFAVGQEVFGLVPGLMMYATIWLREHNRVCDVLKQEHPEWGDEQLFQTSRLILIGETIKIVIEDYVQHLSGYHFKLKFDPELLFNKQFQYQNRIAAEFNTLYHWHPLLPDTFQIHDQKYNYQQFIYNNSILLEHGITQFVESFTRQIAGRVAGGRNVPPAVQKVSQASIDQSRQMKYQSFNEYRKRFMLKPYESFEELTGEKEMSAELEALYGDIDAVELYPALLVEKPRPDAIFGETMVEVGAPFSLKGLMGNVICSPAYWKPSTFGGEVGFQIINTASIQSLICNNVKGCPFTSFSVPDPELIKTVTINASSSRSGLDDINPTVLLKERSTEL
# Chain of Prostaglandin G/H synthase 1 (P23219 whole entry): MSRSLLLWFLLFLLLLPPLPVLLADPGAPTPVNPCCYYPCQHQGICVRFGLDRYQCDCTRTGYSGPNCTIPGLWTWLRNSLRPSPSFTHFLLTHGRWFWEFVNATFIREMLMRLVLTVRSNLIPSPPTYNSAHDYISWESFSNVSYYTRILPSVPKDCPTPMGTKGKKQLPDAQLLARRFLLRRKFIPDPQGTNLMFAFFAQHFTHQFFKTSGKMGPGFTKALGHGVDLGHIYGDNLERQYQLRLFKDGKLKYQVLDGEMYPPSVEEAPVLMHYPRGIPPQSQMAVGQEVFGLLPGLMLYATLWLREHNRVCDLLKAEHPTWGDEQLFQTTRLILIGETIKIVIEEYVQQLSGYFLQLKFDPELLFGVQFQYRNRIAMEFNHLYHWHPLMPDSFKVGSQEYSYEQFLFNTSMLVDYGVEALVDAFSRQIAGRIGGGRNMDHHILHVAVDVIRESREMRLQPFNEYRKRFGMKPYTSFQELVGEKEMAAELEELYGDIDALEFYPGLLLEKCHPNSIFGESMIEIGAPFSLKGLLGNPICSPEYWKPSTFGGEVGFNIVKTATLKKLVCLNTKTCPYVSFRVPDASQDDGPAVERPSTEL
SMILES,IC50 [1] [nM],Ratio IC50 [2],IC50 [3] [nM]
CS(=O)(=O)c1ccc(-n2cc(-c3ccc(Cl)cc3)nn2)cc1,12200,64,190
COc1ccc(C2=C(c3ccc(S(C)(=O)=O)cc3)CCC2)cc1,5000,,
Cc1ccc(-c2cn(-c3ccc(S(C)(=O)=O)cc3)nn2)cc1,45000,18,2500
CN(C)c1ccc(-c2cnnn2-c2ccc(S(C)(=O)=O)cc2)cc1,840,2.3,360
CS(=O)(=O)c1ccc(-n2nncc2-c2ccc(F)cc2)cc1,910,30.3,30
CN(C)c1ccc(-c2cn(-c3ccc(S(C)(=O)=O)cc3)nn2)cc1,> 100000,,> 10000
CS(=O)(=O)c1ccc(-n2cc(-c3ccccc3)nn2)cc1,20800,139,150
COc1ccc(-c2cn(-c3ccc(S(C)(=O)=O)cc3)nn2)cc1,10000,4,2500
CS(=O)(=O)c1ccc(-n2cc(-c3ccc(F)cc3)nn2)cc1,12500,59,210

# Now from value to molecule:
IC50 [1] [nM],Ratio IC50 [2],IC50 [3] [nM],SMILES
830,4.9,170,COc1ccc(-c2cnnn2-c2ccc(S(C)(=O)=O)cc2)cc1
780,6.5,120,Cc1ccc(-c2cnnn2-c2ccc(S(C)(=O)=O)cc2)cc1
810,7.5,110,CS(=O)(=O)c1ccc(-n2nncc2-c2ccccc2)cc1
700,17.5,40,CS(=O)(=O)c1ccc(-n2nncc2-c2ccc(Cl)cc2)cc1
